Measured values taken from patent publication US5118665A, “Anti-oxidative and anti-inflammatory metal:peptide complexes and uses thereof” (ProCyte Corporation, priority 1990, dated 1992).
Where two headings read alike, the source gives them in different places. Blank lines part the entries; values can stand above or below the substance they belong to.

Experiments:
Format in all cases: biochemical
superoxide anion = test: Superoxide dismutase mimetic activity, xanthine oxidase/NBT method; conditions: for IC50: read-out: CONC. FOR 50% INHIB.; for CONC. FOR 50% INHIB.: Table 4, ratio 2:1 (binary) or 1:1:1 (ternary with chelating agent), ug copper(II) added per reaction
Experimental: The reactions contained the following: 100 uM xanthine, 56 uM NBT (nitro blue tetrazolium) 1 unit of catalase, and 50 mM potassium phosphate buffer, pH 7.8. The reaction was initiated by the addition of xanthine oxidase in sufficient quantity to obtain an increase in absorbance at 560 nm of approximately 0.025/min. in a total sample volume of 1.7 ml. The xanthine oxidase was prepared fresh daily and stored on ice until used. All the components of the reaction are added except the xanthine oxidase and the spectrophotometer was adjusted to zero at 560 nm. The reaction was initiated by the addition of the xanthine oxidase. All reagents were obtained from Sigma Chemical Co.
Measurements of the absorbance at 560 nm were taken at 1-2 minute intervals for at least 16 minutes following addition of xanthine oxidase. A control consisted of reactions containing no metal:peptide complex.
All complexes were tested at a 2:1 molar ratio of peptide to metal. It should be noted that the absolute value found in enzymatic assays for SOD mimetic activity varries depending upon the enzyme lot used in the evaluation. Thus, the inclusion of GHL-Cu permits comparisons from experiment to experiment based on a normalized activity relative to GHL-Cu.
In this example, superoxide dismutase was measured by the xanthine oxidase/NBT method as described in Example 13. Each complex was tested relative to GHL-Cu assayed at the same time. All complexes were tested at a 2:1 molar ratio of peptide to metal.
In this example, superoxide dismutase was measured by the xanthine oxidase/NBT method as described in Example 13. Each compound was tested relative to GHL-Cu assayed at the same time. All complexes were tested at a 2:1 molar ratio of peptide to metal.
In this example, superoxide dismutase was measured by the xanthine oxidase/NBT method as described in Example 13. Each compound was tested relative to GHL-Cu or glycyl-L-histidyl-L-lysyl-L-valyl-L-phenylalanyl-valine:copper(II) ("GHLVFV-Cu") assayed at the same time. In this example, the amount of complex for 50% inhibition is expressed as ug copper(II) added per reaction necessary to achieve 50% inhibition of the control reaction.
In this example, superoxide dismutase was measured by the xanthine oxidase/NBT method as described in Example 13. Each compound was tested relative to GHL-Cu assayed at the same time.

ferritin = test: Inhibition of ferritin iron release (bathophenanthroline disulfonate, A535); conditions: 10 um complex, peptide:metal 1:1; for RATE INC. A535 nm min: 200 uM ferritin, no addition = 0.0060; for PERCENT INHIBITION: versus reaction with no additions
Experimental: (§1) Iron release from ferritin was measured by incubating ferritin with 10 um of a metal:peptide complexes of the present invention and determining the amount of iron released. Reaction mixtures contained 0.33 mM xanthine, 25 mU/ml xanthine oxidase, and 90 U/ml catalase as described in Example 13. In addition, 200 uM ferritin was added as a source of iron and 150 uM bathophenanthroline disulfonate to chelate and released iron. The release of iron was measured as an increase in the absorption of 535 nm due to the ironbathophenanthroline complex. The data is presented in Table 6 as this absorption rate and as a percent inhibition of a reaction with no additions. All the metal:peptide complexes are at a molar ratio of peptide to metal of 1:1.

[1] = test system: liposomes prepared from rat liver lipids; test: Inhibition of ferritin and superoxide anion dependent lipid peroxidation (MDA formation); conditions: peptide:metal 1:1; for RATE nmole MDA/min/ml: incubations as Example 18, no addition = 0.220 (A), 0.150 (B); for PERCENT INHIBITION: versus reaction with no additions
Experimental: as §1
Lipid peroxidation was measured by determining the oxidation of lipids in liposomes prepared from rat liver lipids. Incubations were as described in Example 18 except that rat liver lipid […] were included. The oxidation was followed by determining the amount of malondialdehyde ("MDA") formed during the reaction. The data is presented in Table 7 as this absorption rate and as a percent inhibition of a reaction with no additions. All the metal:peptide complexes are at a molar ratio of peptide to metal of 1:1.

[2] = Table 2, GHL:Cu of the same experiment = 100, peptide:metal 2:1
[3] = Table 2, peptide:metal 2:1, experiments A-G, each with its own GHL:Cu control
[4] = Table 3, ratio 2:1, copper(II) versus manganese(II), experiments A, B
[5] = Table 3, ratio 2:1, reference of the same experiment = 100
[6] = Table 1, GHL:Cu of the same experiment = 100, peptide:metal 2:1
[7] = Table 1, peptide:metal 2:1, pH 7.8, experiments A-E, each with its own GHL:Cu control
[8] = Table 4 experiment A, GHL:Cu 2:1 = 100
[9] = Table 5, GHL:Cu of the same experiment = 100, ratio 2:1
[10] = Table 5, ratio 2:1, albumin binding moieties, experiments A, B
[11] = Table 4 experiment B, GHLVFV:Cu 2:1 = 100

Substance: Lhistidyl-glycyl-L-lysine:copper(II) [HGL:Cu]
RELATIVE to GHL-Cu (superoxide anion; [2]): 22300
IC50 (superoxide anion; [3]): 0.3 µM
RATE INC. A535 nm min (ferritin): 0.0008 A535 nm min
PERCENT INHIBITION (ferritin): 87%
RATE nmole MDA/min/ml [1]: 0.020 nmole MDA/min/ml
PERCENT INHIBITION [1]: 87%

Substance: Lhistidyl-glycyl-L-lysine:manganese(II) [HGL:Mn]
IC50 (superoxide anion; [4]): 2 µM
RELATIVE to GHL-Cu (superoxide anion; [5]): 2000

Substance: alanylL-histidyl-L-lysine:copper(II) [AHL:Cu]
RELATIVE to GHL-Cu (superoxide anion; [2]): 563
IC50 (superoxide anion; [3]): 6 µM

Substance: alanylL-histidyl-L-lysine:manganese(II) [AHL:Mn]
IC50 (superoxide anion; [4]): 6 µM
RELATIVE to GHL-Cu (superoxide anion; [5]): 667

Substance: glycyl-L-histidyl-L-lysine n-octyl ester:copper(II) [GHL-Octyl Ester:Cu]
RELATIVE to GHL-Cu (superoxide anion; [6]): 810
IC50 (superoxide anion; [7]): 7 µM
IC50 (superoxide anion; [4]): 11 µM
RELATIVE to GHL-Cu (superoxide anion; [5]): 100
RATE INC. A535 nm min (ferritin): 0.0012 A535 nm min
PERCENT INHIBITION (ferritin): 80%
RATE nmole MDA/min/ml [1]: 0.060 nmole MDA/min/ml
PERCENT INHIBITION [1]: 73%

Substance: glycyl-L-histidyl-L-lysine:copper(II) [GHL:Cu, reference compound]
RELATIVE to GHL-Cu (superoxide anion; [6]): 100
RELATIVE to GHL-Cu (superoxide anion; [2]): 100
RELATIVE to GHL-Cu (superoxide anion; [5]): 100
CONC. FOR 50% INHIB. (superoxide anion): 3.2 ug copper(II) per reaction
RELATIVE to GHL-Cu (superoxide anion; [8]): 100
RELATIVE to GHL-Cu (superoxide anion; [9]): 100
RATE INC. A535 nm min (ferritin): 0.0016 A535 nm min
PERCENT INHIBITION (ferritin): 73%
RATE nmole MDA/min/ml [1]: 0.084 nmole MDA/min/ml
PERCENT INHIBITION [1]: 62%

Substance: glycylL-(3-benzyl)-histidyl-L-lysine:copper(II) [G(3-Benzyl)HL:Cu]
RELATIVE to GHL-Cu (superoxide anion; [2]): 145
IC50 (superoxide anion; [3]): 33 µM

Substance: glycylL-(3-methyl)-histidyl-L-lysine:copper(II) [G(3-Methyl)HL:Cu]
RELATIVE to GHL-Cu (superoxide anion; [2]): 616
IC50 (superoxide anion; [3]): 8 µM
RATE INC. A535 nm min (ferritin): 0.0010 A535 nm min
PERCENT INHIBITION (ferritin): 83%
RATE nmole MDA/min/ml [1]: 0.104 nmole MDA/min/ml
PERCENT INHIBITION [1]: 31%

Substance: glycylL-(3-methyl)-histidyl-L-lysyl-glycyl-L-tryptophan:copper(II) [G(3-Methyl)HLGW:Cu]
RELATIVE to GHL-Cu (superoxide anion; [9]): 521
IC50 (superoxide anion; [10]): 11 µM

Substance: glycylL-histidyl-L-lysine noctyl amide:copper(II) [GHL-Octyl Amide:Cu]
RELATIVE to GHL-Cu (superoxide anion; [6]): 182
IC50 (superoxide anion; [7]): 17 µM

Substance: glycylL-histidyl-L-lysine noctyl ester:manganese(II) [GHL-Octyl:Mn]
IC50 (superoxide anion; [4]): 2 µM
RELATIVE to GHL-Cu (superoxide anion; [5]): 611

Substance: glycylL-histidyl-L-lysine npalmityl ester:copper(II) [GHL-Palmityl Ester:Cu]
RELATIVE to GHL-Cu (superoxide anion; [6]): 231
IC50 (superoxide anion; [7]): 24 µM

Substance: glycylL-histidyl-L-lysine:copper(II):histidine [GHL:Cu:H]
CONC. FOR 50% INHIB. (superoxide anion): 0.2 ug copper(II) per reaction
RELATIVE to GHL-Cu (superoxide anion; [8]): 1600

Substance: glycylL-histidyl-L-lysine:copper(II):imidazole [GHL:Cu:Im]
CONC. FOR 50% INHIB. (superoxide anion): 1.3 ug copper(II) per reaction
RELATIVE to GHL-Cu (superoxide anion; [8]): 246

Substance: glycylL-histidyl-cadaverine:copper(II) [GHCadaverine:Cu]
RELATIVE to GHL-Cu (superoxide anion; [2]): 118
IC50 (superoxide anion; [3]): 17 µM

The next lines start with results.

RELATIVE to GHL-Cu (superoxide anion; [6]): 561
IC50 (superoxide anion; [7]): 10 µM
Substance: glycylL-histidyl-L-lysyl-L-alanyl-L-phenylalanyl-L-alanine:copper(II) [GHLAFA:Cu]

RELATIVE to GHL-Cu (superoxide anion; [9]): 4700
IC50 (superoxide anion; [10]): 1 µM
Substance: glycylL-histidyl-L-lysyl-L-tryptophan:copper(II) [GHLW:Cu]

RELATIVE to GHL-Cu (superoxide anion; [6]): 229
IC50 (superoxide anion; [7]): 23 µM
CONC. FOR 50% INHIB. (superoxide anion): 2.8 ug copper(II) per reaction
RELATIVE to GHL-Cu (superoxide anion; [11]): 100
Substance: glycylL-histidyl-L-lysyl-L-valyl-L-phenylalanyl-L-valine:copper(II) [GHLVFV:Cu]
RATE INC. A535 nm min (ferritin): 0.0011 A535 nm min
PERCENT INHIBITION (ferritin): 82%
RATE nmole MDA/min/ml [1]: 0.140 nmole MDA/min/ml
PERCENT INHIBITION [1]: 36%

CONC. FOR 50% INHIB. (superoxide anion): 0.2 ug copper(II) per reaction
RELATIVE to GHL-Cu (superoxide anion; [11]): 1400
Substance: glycylL-histidyl-L-lysyl-L-valyl-L-phenylalanyl-L-valine:copper(II):histiine [GHLVFV:Cu:H]

CONC. FOR 50% INHIB. (superoxide anion): 0.3 ug copper(II) per reaction
RELATIVE to GHL-Cu (superoxide anion; [11]): 930
Substance: glycylL-histidyl-L-lysyl-L-valyl-L-phenylalanyl-L-valine:copper(II):imidaole [GHLVFV:Cu:Im]

RELATIVE to GHL-Cu (superoxide anion; [2]): 75
IC50 (superoxide anion; [3]): 20 µM
Substance: glycylL-lysyl-L-histidine:copper(II) [GLH:Cu]

IC50 (superoxide anion; [4]): 6 µM
RELATIVE to GHL-Cu (superoxide anion; [5]): 2000
Substance: glycylL-lysyl-L-histidine:manganese(II) [GLH:Mn]

RELATIVE to GHL-Cu (superoxide anion; [2]): 21
IC50 (superoxide anion; [3]): 70 µM
Substance: lysylL-histidyl-L-glycine amide:copper(II) [LHG-Amide:Cu]

RELATIVE to GHL-Cu (superoxide anion; [6]): 60
IC50 (superoxide anion; [7]): 10 µM
Substance: lysylL-histidyl-L-glycine noctyl ester:copper(II) [LHG-Octyl Ester:Cu]

RELATIVE to GHL-Cu (superoxide anion; [2]): 4500
IC50 (superoxide anion; [3]): 0.8 µM
Substance: lysylL-histidyl-caprolactam:copper(II) [GHCaprolactam:Cu]

RELATIVE to GHL-Cu (superoxide anion; [6]): 46
IC50 (superoxide anion; [7]): 13 µM
Substance: lysylL-histidyl-glycyl-L-valyl-L-phenylalanyl-L-valine:copper(II) [LHGVFV:Cu]
